Source: patent publication US12583818B2 (DAEGU-GYEONGBUK MEDICAL INNOVATION FOUNDATION, priority 2020, dated 2026)

Biological target: T1, Pin1 (Homo sapiens, UniProt Q13526)
T1 construct: purchased Anaspec
Test: Evaluation of Pin1 enzyme inhibitory activity (Sensolyte Green Pin1 assay kit)
Assay type: biochemical
Conditions: concentration at which the Pin1 enzyme activity is inhibited; 2 hours at room temperature, fluorescence 490 nm/520 nm; read-out: Pin 1 inhibition
Procedure: In order to evaluate the Pin1 enzyme inhibitory activity of the compound represented by formula 1 according to the present invention, the following experiment was performed, and the results are shown in Table 2 below.
The enzyme activity of Pin1 protein was measured using a sensolyte Green Pin1 assay kit of Anaspec. The substrate was diluted in a buffer at a ratio of 1:100 to prepare a concentration of 1 μM, and the protein was diluted in a buffer at a ratio of 1:20 to prepare a concentration of 50 μg/ml. In addition, a developing solution was prepared by diluting thereof in a buffer at a ratio of 1:100.
The compound prepared in each example was diluted with DMSO and prepared at a concentration of 100 μM, 10 μM, 1 μM or 0.1 μM using a buffer. After sequentially adding 10 μl of the compound prepared in each Example diluted to four concentrations according to the above method, 10 μl of Pin1 protein, and 30 μl of the developing solution to each well of a black 96-well plate, […]. Finally, 50 μl of the substrate was added to each well of the plate, and the enzyme reaction was carried out after shaking the plate for 10 seconds.
Then, the plate was incubated for 2 hours at room temperature in an environment without light, and the fluorescence values at 490 nm/520 nm wavelength were measured using a device of Synergy Neo […]. The results are shown in Table 2 below by dividing the grades of A to D for each concentration (μM) at which the Pin1 enzyme activity is inhibited.

T1 sequence (Q13526 whole entry): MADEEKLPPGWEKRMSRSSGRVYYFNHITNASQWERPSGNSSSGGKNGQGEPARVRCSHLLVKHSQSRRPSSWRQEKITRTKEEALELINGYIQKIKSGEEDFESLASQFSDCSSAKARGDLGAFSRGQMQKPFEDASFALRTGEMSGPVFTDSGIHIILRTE

IC50	Compound
> 100 µM	CN(C)CCCOc1ccc(S(=O)(=O)NCCc2ccccc2)cc1 [Example 14, 4-(3-(dimethylamino)propoxy)-N-phenethylbenzenesulfonamide]
> 100 µM	CN(C)CCCOc1ccc(S(=O)(=O)NCCCc2ccccc2)cc1 [Example 15, 4-(3-(dimethylamino)propoxy)-N-(3-phenylpropyl)benzenesulfonamide]
> 100 µM	COC(=O)c1ccc(CCNS(=O)(=O)c2ccc(OCCCN(C)C)cc2)cc1 [Example 16, methyl 4-(2-(4-(3-(dimethylamino)propoxy)phenylsulfonamido)ethyl)benzoate]
> 100 µM	CN(C)CCCOc1ccc(S(=O)(=O)NCCc2ccc(C(=O)O)cc2)cc1 [Example 17, 4-(2-(4-(3-(dimethylamino)propoxy)phenylsulfonamido)ethyl)benzoic acid]
> 100 µM	CN(C)CCCOc1ccc(S(=O)(=O)NCCCN2CCCC2=O)cc1 [Example 18, 4-(3-(dimethylamino)propoxy)-N-(3-(2-oxopyrrolidin-1-yl)propyl)benzenesulfonamide]
10 to 100 µM	CN(C)CCOc1ccc(S(=O)(=O)NCCCc2c[nH]c3ccccc23)cc1 [Example 21, N-(3-(1H-indol-3-yl)propyl)-4-(2-(dimethylamino)ethoxy)benzenesulfonamide]
> 100 µM	CCCCOc1ccc(S(=O)(=O)NCCc2nc3ccccc3[nH]2)cc1 [Example 23]
10 to 100 µM	CC(C)CCOc1ccc(S(=O)(=O)NCCCc2c[nH]c3ccccc23)cc1 [Example 26, N-(3-(1H-indol-3-yl)propyl)-4-(isopentyloxy)benzenesulfonamide]
10 to 100 µM	CCCCCOc1ccc(S(=O)(=O)NCCCc2c[nH]c3ccccc23)cc1 [Example 27, N-(3-(1H-indol-3-yl)propyl)-4-(pentyloxy)benzenesulfonamide]
> 100 µM	O=S(=O)(NCCCc1c[nH]c2ccccc12)c1ccc(OCCCN2CCOCC2)cc1 [Example 30, N-(3-(1H-indol-3-yl)propyl)-4-(3-morpholinopropoxy)benzenesulfonamide]
> 100 µM	CN(C)CCCOc1ccc(S(=O)(=O)NCCc2nc3ccccc3[nH]2)cc1 [Example 37, N-(2-(1H-benzo[d]imidazol-2-yl)ethyl)-4-(3-(dimethylamino)propoxy)benzenesulfonamide]
> 100 µM	CN(C)CCCOc1ccc(S(=O)(=O)NCCc2cc3ccccc3[nH]2)cc1 [Example 38, N-(2-(1H-indol-2-yl)ethyl)-4-(3-(dimethylamino)propoxy)benzenesulfonamide]
> 100 µM	CN(C)CCCOc1ccc(S(=O)(=O)NCCCn2ccc3ccccc32)cc1 [Example 39, N-(3-(1H-indol-1-yl)propyl)-4-(3-(dimethylamino)propoxy)benzenesulfonamide]
> 100 µM	CN(C)CCCOc1ccc(S(=O)(=O)NCCCn2cnc3ccccc32)cc1 [Example 40, N-(3-(1H-benzo[d]imidazol-1-yl)propyl)-4-(3-(dimethylamino)propoxy)benzenesulfonamide]
> 100 µM	CN1CCN(CCCOc2ccc(S(=O)(=O)NCCCn3ccc4ccccc43)cc2)CC1 [Example 41, N-(3-(1H-indol-1-yl)propyl)-4-(3-(4-methylpiperazin-1-yl)propoxy)benzenesulfonamide]
> 100 µM	CN1CCN(CCCOc2ccc(S(=O)(=O)NCCCn3cnc4ccccc43)cc2)CC1 [Example 42, N-(3-(1H-benzo[d]imidazol-1-yl)propyl)-4-(3-(4-methylpiperazin-1-yl)propoxy)benzenesulfonamide]
10 to 100 µM	O=S(=O)(NCCCc1c[nH]c2ccccc12)c1ccc(OCCCN2CCCCC2)cc1 [Example 43, N-(3-(1H-indol-3-yl)propyl)-4-(3-(piperidin-1-yl)propoxy)benzenesulfonamide]
> 100 µM	CN(C)CCCOc1ccc(S(=O)(=O)NCCCc2cn(C)c3ccccc23)cc1 [Example 46, 4-(3-(dimethylamino)propoxy)-N-(3-(1-methyl-1H-indole-3-yl)propyl)benzenesulfonamide]
> 100 µM	O=S(=O)(NCCCc1c[nH]c2ccccc12)c1ccc(Br)cc1 [Example 47, N-(3-(1H-indole-3-yl)propyl)-4-bromobenzenesulfonamide]
10 to 100 µM	CC(C)N1CCN(CCCOc2ccc(S(=O)(=O)NCCCc3c[nH]c4ccccc34)cc2)CC1 [Example 48, N-(3-(1H-indol-3-yl)propyl)-4-(3-(4-isopropylpiperazin-1-yl)propoxy)benzenesulfonamide]
10 to 100 µM	COc1ccc2[nH]cc(CCNS(=O)(=O)c3ccc(OCCCN4CCN(C)CC4)cc3)c2c1 [Example 49, N-(2-(5-methoxy-1H-indol-3-yl)ethyl)-4-(3-(4-methylpiperazin-1-yl)propoxy)benzenesulfonamide]
10 to 100 µM	CN1CCN(CCCOc2ccc(S(=O)(=O)NCCc3c[nH]c4ccccc34)cc2)CC1 [Example 50, N-(2-(1H-indol-3-yl)ethyl)-4-(3-(4-methylpiperazin-1-yl)propoxy)benzenesulfonamide]

Compound	IC50
CCCCOc1ccc(S(=O)(=O)NCCCc2ccc(-c3ccccc3)cc2)cc1 [Example 1, N-(3-([1,1′-biphenyl]-4-yl)propyl)-4-butoxybenzenesulfonamide]	> 100 µM
CCCCOc1ccc(S(=O)(=O)NCCCN2CCN(C(C)C)CC2)cc1 [Example 2, 4-butoxy-N-(3-(4-isopropylpiperazin-1-yl)propyl)benzenesulfonamide]	> 100 µM
CCCCOc1ccc(S(=O)(=O)NCCCc2ccc(Cl)cc2)cc1 [Example 3, 4-butoxy-N-(3-(4-chlorophenyl)propyl)benzenesulfonamide]	> 100 µM
CCCCOc1ccc(S(=O)(=O)NCCCC2CCCCC2)cc1 [Example 4, 4-butoxy-N-(3-cyclohexylpropyl)benzenesulfonamide]	> 100 µM
CCCCOc1ccc(S(=O)(=O)NCCCc2cccnc2)cc1 [Example 5, 4-butoxy-N-(3-(pyridin-3-yl)propyl)benzensulfonamide]	> 100 µM
CCCCOc1ccc(S(=O)(=O)NCCCN2CCOCC2)cc1 [Example 6, 4-butoxy-N-(3-morpholinopropyl)benzenesulfonamide]	> 100 µM
CCCCOc1ccc(S(=O)(=O)NCCc2ccc(N3CCOCC3)cc2)cc1 [Example 7, 4-butoxy-N-(4-morpholinophenethyl)benzenesulfonamide]	> 100 µM
CCCCOc1ccc(S(=O)(=O)NCCc2ccc(C(=O)O)cc2)cc1 [Example 8, 4-(2-(4-butoxyphenylsulfonamido)ethyl)benzoic acid]	> 100 µM
CCCCOc1ccc(S(=O)(=O)NCCc2ccc(C(=O)OC)cc2)cc1 [Example 9, methyl 4-(2-(4-butoxyphenylsulfonamido)ethyl)benzoate]	> 100 µM
CCCCOc1ccc(S(=O)(=O)NCCN2CCC(Cc3ccccc3)CC2)cc1 [Example 10, N-(2-(4-benzylpiperidin-1-yl)ethyl)-4-butoxybenzenesulfonamide]	> 100 µM
CCCCOc1ccc(S(=O)(=O)NCCC(O)c2ccccc2)cc1 (stereo not shown) [Example 11, 4-butoxy-N-(3-hydroxy-3-phenylpropyl)benzenesulfonamide]	10 to 100 µM
CCCCOc1ccc(S(=O)(=O)NCCC(=O)c2ccccc2)cc1 [Example 12, 4-butoxy-N-(3-oxo-3-phenylpropyl)benzenesulfonamide]	10 to 100 µM
CCCCOc1ccc(S(=O)(=O)NCCCN2CCCC2=O)cc1 [Example 13, 4-butoxy-N-(3-(2-oxopyrrolidin-1-yl)propyl)benzenesulfonamide]	> 100 µM
CCCCOc1ccc(S(=O)(=O)NCCCc2cccc3ccccc23)cc1 [Example 19, 4-butoxy-N-(3-(naphthalen-1-yl)propyl)benzenesulfonamide]	> 100 µM
CCCCOc1ccc(S(=O)(=O)NCCCc2c[nH]c3ccccc23)cc1 [Example 20, N-(3-(1H-indol-3-yl)propyl)-4-butoxybenzenesulfonamide]	10 to 100 µM
CCCCOc1ccc(S(=O)(=O)NCCc2c[nH]c3ccccc23)cc1 [Example 24, N-(2-(1H-indol-3-yl)ethyl)-4-butoxybenzenesulfonamide]	> 100 µM
CCCCOc1ccc(S(=O)(=O)NCCc2cc3ccccc3[nH]2)cc1 [Example 25, N-(2-(1H-indol-2-yl)ethyl)-4-butoxybenzenesulfonamide]	> 100 µM
CCCCOc1ccc(S(=O)(=O)NCCCc2nc3ccccc3[nH]2)cc1 [Example 28, N-(3-(1H-benzo[d]imidazol-2-yl)propyl)-4-butoxybenzenesulfonamide]	> 100 µM
CCCCOc1ccc(S(=O)(=O)NCCc2c[nH]c3ccc(O)cc23)cc1 [Example 29, 4-butoxy-N-(2-(5-hydroxy-1H-indol-3-yl)ethyl)benzenesulfonamide]	> 100 µM
CCCCOc1ccc(S(=O)(=O)NCCCn2ccc3ccccc32)cc1 [Example 32, N-(3-(1H-indol-1-yl)propyl)-4-butoxybenzenesulfonamide]	> 100 µM
CCCCOc1ccc(S(=O)(=O)NCCCn2cnc3ccccc32)cc1 [Example 33, N-(3-(1H-benzo[d]imidazol-1-yl)propyl)-4-butoxybenzenesulfonamide]	> 100 µM
